Data: ChEMBL document CHEMBL1156829 (Proc Natl Acad Sci U S A, 2008)

Key:
[1] = NOVARTIS: Cytotoxicity against human hepatocellular carcinoma cell line (Huh7); format: toxicity, cell-based, Huh-7; details: Huh7 cells (hepatocellular carcinoma cell line)
Plasmodium falciparum [2] = experiment: NOVARTIS: Inhibition of Plasmodium falciparum 3D7 (drug-susceptible) proliferation in erythrocyte-based infection assay; format: functional, organism-based; details: Plasmodium falciparum, 3D7
Plasmodium falciparum [3] = experiment: NOVARTIS: Inhibition of Plasmodium falciparum W2 (drug-resistant) proliferation in erythrocyte-based infection assay; format: functional, organism-based; details: Plasmodium falciparum, W2; read-out: EC50

SMILES	CC50 [1]	EC50 (Plasmodium falciparum [2])	EC50 (Plasmodium falciparum [3])
COc1ccc2c(c1)sc1nc(C)c(C)c(C)[n+]12	> 10000 nM	688 nM	> 952 nM
CC[C@H]1CN2CCc3cc(OC)c(OC)cc3[C@@H]2C[C@@H]1C[C@@H]1NCCc2cc(OC)c(OC)cc21	82.2 nM	10.6 nM	23.1 nM
Cc1ccc(O)c(NC(=O)c2cnn3c(C(F)(F)F)cc(-c4ccc(F)cc4)nc23)c1	> 100000 nM	10500 nM	5720 nM
Cc1cc(C)c2c(c1)c(-c1ccccc1)c(-c1ccccc1)n2CC(O)Cn1cnc(-c2ccccc2)c1-c1ccccc1 (stereo unspecified)	> 100000 nM	1350 nM	155 nM
Oc1c2c(nc3cc(-c4ccccc4)nn13)CCCC2	> 100000 nM	1930 nM	> 12500 nM
Cc1cccc2cc(C(c3nnnn3C3CCCC3)N3CCCC4(CCCCC4)C3)c(=O)[nH]c12 (stereo unspecified)	> 10000 nM	> 1250 nM	> 209 nM
CCCCN(C)CCCNC(=O)c1ccc(Cl)c(NC(=O)Nc2ccc(Cl)c(Cl)c2)c1	20300 nM	233 nM	822 nM
O=C(O)c1ccc([C@@H]2Nc3c(ccc4ccccc34)[C@@H]3C=CC[C@@H]32)cc1	> 10000 nM	> 1250 nM	1340 nM
COc1ccccc1Cn1c(SCC(=O)Nc2cccc(C(F)(F)F)c2)nc2ccc(Br)cc2c1=O	> 100000 nM	735 nM	831 nM
Cc1ccn2c(NC(C)(C)CC(C)(C)C)c(-c3ccccc3OC(=O)C34CC5CC(CC(C5)C3)C4)nc2c1	> 10000 nM	788 nM	214 nM
CCOc1cc(Br)cc(/C=C2\NC(=S)NC2=O)c1O	> 10000 nM	> 1250 nM	> 973 nM
CC1(C)CC(NC(=O)Cc2ccc(Cl)cc2)CC(C)(C)N1	> 100000 nM	> 12500 nM	2300 nM
CCCN1CCC(N2C[C@@H](NCCC3=C(C)CCCC3(C)C)C[C@H]2C(=O)NCC)CC1	35100 nM	2340 nM	765 nM
COc1cc(Cl)c(C)cc1NC(=O)C1c2ccccc2C(=O)N(CC(C)C)C1c1cccs1 (stereo unspecified)	> 100000 nM	578 nM	373 nM
NC(=NOC(=O)c1ccccc1I)c1ccccn1	63000 nM	6030 nM	831 nM
Cc1ccc(-c2c[n+](Cc3ccc(Cl)cc3)c3n2CCC3)cc1	> 75700 nM	373 nM	153 nM
Nc1cc(C(=O)Nc2ccc(C3=NCCN3)cc2)ccc1C(=O)Nc1ccc(C2=NCCN2)cc1	90600 nM	290 nM	179 nM
COc1ccc(NC2=C(c3ccc(C(F)(F)F)cc3)C(=O)c3ccccc32)cc1	> 100000 nM	339 nM	772 nM
Cc1ccc(N2C(=O)C3C(C2=O)C2(c4ccccc4)C(=O)C3(c3ccccc3)C(c3ccccc3)=C2c2ccccc2)cc1Br (stereo unspecified)	> 10000 nM	1440 nM	1410 nM
c1ccc2[nH]c(CN(Cc3nc4ccccc4[nH]3)Cc3nc4ccccc4[nH]3)nc2c1	26700 nM	191 nM	5260 nM
Cc1ccnc(Nc2nc(-c3c(C)nc4sccn34)cs2)c1	> 73400 nM	1500 nM	753 nM
Clc1ccc(-c2cn3c([n+]2-c2ccccc2)CCC3)cc1	> 100000 nM	257 nM	3510 nM
O=C1NN(c2ccc(Br)cc2)C(=O)/C1=C\c1c(O)ccc2ccccc12	> 10000 nM	856 nM	653 nM

SMILES	CC50 [1]	EC50 (Plasmodium falciparum [2])	EC50 (Plasmodium falciparum [3])
Cc1ccccc1CN1CCN(CC=Cc2ccccc2)CCC1=O	> 100000 nM	1430 nM	531 nM
Cc1cc(C)cc(Nc2cc(C)nc3ncnn23)c1	> 100000 nM	1220 nM	901 nM
CCOC(=O)C1CCN(C(c2cc3cc(OC)c(OC)cc3[nH]c2=O)c2nnnn2C(C)(C)C)CC1 (stereo unspecified)	> 100000 nM	889 nM	567 nM
CN1CCCC(CNC(=O)c2cnn(-c3ncc4c(n3)-c3ccccc3SC4)c2C2CC2)C1 (stereo unspecified)	> 10000 nM	976 nM	1100 nM
CC(C)(C)CC(C)(C)Nc1c(-c2ccccc2OC(=O)C2CCC2)nc2ccccn12	> 10000 nM	729 nM	104 nM
Cc1sc2ncn(CC(=O)N(C)Cc3ccccc3)c(=O)c2c1S(=O)(=O)N1CCOCC1	> 10000 nM	> 1250 nM	> 770 nM
CCOC(=O)C1=C(CC)NC2=C(C(=O)CCC2)C1c1ccc(N(C)C)cc1 (stereo unspecified)	> 100000 nM	8700 nM	1910 nM
CCC(C)NC(=O)CSc1nnc(-c2cccnc2)n1-c1ccc(Cl)cc1 (stereo unspecified)	> 10000 nM	> 1520 nM	> 1090 nM
CC1CCCCN1CCCNc1ncc(C(=O)NCc2ccccc2)c(NC2CCCC2)n1 (stereo unspecified)	> 10000 nM	943 nM	> 1250 nM
Cc1c(-c2ccc(Cl)cc2)[n+]2c(n1-c1ccccc1)SCCC2	> 100000 nM	1150 nM	1040 nM
CN(C)c1ccc(N/C=C/C(=O)C(C)(C)C)cc1	> 10000 nM	1450 nM	1580 nM
COc1cc(C(=O)NC(c2ccc3c(c2)OCO3)c2cc(Cl)c3cccnc3c2O)cc(OC)c1OC (stereo unspecified)	> 10000 nM	428 nM	698 nM
COc1cccc(CN2CCC(O)(c3ccc4oc(C(=O)Nc5ccc(Cl)cc5)cc4c3)CC2)c1	24700 nM	2160 nM	4060 nM
COc1cc(/C=C/C(=O)Nc2ccc3nc(N4CCN(c5ncccn5)CC4)cc(C)c3c2)cc(OC)c1OC	> 10000 nM	1330 nM	739 nM
O=C(Nc1ccc(-c2cn3cccnc3n2)cc1)c1ccccc1I	> 100000 nM	> 12500 nM	2620 nM
CC1CCCCN1CCCNc1ncc(C(=O)NCCc2ccccc2)c(NCC2CCCO2)n1 (stereo unspecified)	> 10000 nM	914 nM	> 1560 nM
COc1cc2c(cc1OC)-c1cc3ccc(OC)c(OC)c3c[n+]1CC2 [PALMATINE CHLORIDE]	> 100000 nM	697 nM	766 nM
CC(=O)Nc1nc(C)c(-c2csc(Nc3ccc(C)cc3)n2)s1	23600 nM	240 nM	166 nM
Cc1cc(N2CCC(C)CC2)nc(-n2nc(C)cc2C)n1	> 100000 nM	1100 nM	382 nM
O=C(NCc1ccccc1)c1cnc(NCCCn2ccnc2)nc1NC1CCCC1	> 10000 nM	624 nM	1320 nM
O=C(Nc1ccc(-c2nc3cc(NC(=O)C(c4ccccc4)c4ccccc4)ccc3[nH]2)cc1)C(c1ccccc1)c1ccccc1	> 100000 nM	4450 nM	3680 nM
CCOC(=O)c1c(C)n(-c2ccccc2)c2ccc(OC(=O)c3ccccc3NC(=O)C(C)C)cc12	> 100000 nM	885 nM	1990 nM
CS/C(Cl)=C(/NC(C)=O)[P+](c1ccccc1)(c1ccccc1)c1ccccc1.[O-][Cl+3]([O-])([O-])[O-]	> 10000 nM	115 nM	100 nM

SMILES	CC50 [1]	EC50 (Plasmodium falciparum [2])	EC50 (Plasmodium falciparum [3])
N#CC(C#N)C(/C(Sc1ccc([N+](=O)[O-])cc1)=C(/O)c1ccccc1)c1cccs1 (stereo unspecified)	> 10000 nM	> 403 nM	> 1250 nM
CC(=O)N(C1=C(N2CCOCC2)C(=O)c2ccccc2C1=O)c1ccc(F)cc1	173 nM	12.9 nM	14 nM
Cc1ccc(NC(C)c2nc3ccccc3c(=O)n2CCOC2CCCCO2)cc1C (stereo unspecified)	> 2700 nM	799 nM	1040 nM
N#Cc1c(N)nc2sc(C(=O)Nc3ccc(Br)cc3)c(N)c2c1-c1ccccc1	> 100000 nM	8210 nM	763 nM
COC(=O)C1=CNC=C(C(=O)OC)C1c1cc(OC)c(OC)cc1OC	> 10000 nM	> 1350 nM	245 nM
Cn1cc([N+](=O)[O-])c(C(=O)NN=Cc2c[nH]c3ccccc23)n1	> 10000 nM	1940 nM	1100 nM
COc1ccc(CCNC(=O)CC(=O)NN=Cc2ccc(Br)cc2)cc1OC	> 10000 nM	> 1250 nM	> 429 nM
CCSc1sc2sccc2[n+]1CC	> 8580 nM	944 nM	833 nM
CN(C)c1nc(Cl)nc(N(C#N)CCOc2ccccc2)n1	> 10000 nM	> 703 nM	> 1250 nM
CCCCCN(C(=O)Nc1ccccc1OC)C(C)c1nc2ccccc2c(=O)n1-c1ccccc1OCC (stereo unspecified)	> 10000 nM	843 nM	917 nM
O=C(CSc1ccc(Cl)cc1)NN=C1C(=O)Nc2ccccc21	> 100000 nM	> 12500 nM	> 1990 nM
COC(=O)c1ccccc1NC(=O)CSc1nc2ccsc2c(=O)n1CCN1CCCC1	> 100000 nM	> 11200 nM	> 11200 nM
CC[n+]1cccc2ccc3cccnc3c21	> 100000 nM	553 nM	257 nM
O=C(CN1CCCC1)Nc1nc(-c2ccc3c(c2)CCN3S(=O)(=O)c2ccccc2)cs1	> 76200 nM	468 nM	1270 nM
CC(C)CCNC(=O)C1CSC(c2ccc(F)cc2)N1C(=O)c1ccc(Cl)cc1Cl (stereo unspecified)	> 100000 nM	> 12500 nM	8180 nM
CCOc1ccc2[nH]c(=O)c(CN(CCN(CC)CC)C(=S)NCCCN(CC)CC)cc2c1	> 100000 nM	5560 nM	1480 nM
CCOC(=O)c1sc(-c2cnccc2C(F)(F)F)nc1C	> 10000 nM	> 912 nM	172 nM
Cc1ccc(NC(=O)c2nc[nH]c2C(=O)Nc2nc3ccccc3[nH]2)c(C)c1	> 100000 nM	7290 nM	> 12500 nM
CCC1CCCCN1C(=O)C1CC(=O)N(c2ccc(OC)cc2)C1c1ccc(OC)cc1 (stereo unspecified)	> 100000 nM	387 nM	394 nM
COc1ccc(NC(=O)c2cc3cc(C4(O)CCN(CC(C)c5ccccc5)CC4)ccc3o2)cc1 (stereo unspecified)	> 100000 nM	2400 nM	1980 nM
COc1ccc(OC)c(-c2ccc(O)c(CN3CCCCCC3)c2)c1	> 10000 nM	570 nM	87.6 nM
